Measured values: article PMC7491124, “Studies on sugar transporter CRT1 reveal new characteristics that are critical for cellulase induction in Trichoderma reesei” (Biotechnology for Biofuels, 2020)

How the values were obtained:
Type in all cases: cell-based
CDT-2 = target: T1, CDT-2 (Neurospora crassa, UniProt Q7SD12); assay: radiolabelled lactose uptake in yeast, […] min; details: labelled compound; 5 mM lactose, pH 6.5, 28 °C
T1 construct: full-length; PGK1 promoter, centromeric plasmid in S. cerevisiae co-expressing N. crassa GH1-1
T1 sequence (Q7SD12 1-525): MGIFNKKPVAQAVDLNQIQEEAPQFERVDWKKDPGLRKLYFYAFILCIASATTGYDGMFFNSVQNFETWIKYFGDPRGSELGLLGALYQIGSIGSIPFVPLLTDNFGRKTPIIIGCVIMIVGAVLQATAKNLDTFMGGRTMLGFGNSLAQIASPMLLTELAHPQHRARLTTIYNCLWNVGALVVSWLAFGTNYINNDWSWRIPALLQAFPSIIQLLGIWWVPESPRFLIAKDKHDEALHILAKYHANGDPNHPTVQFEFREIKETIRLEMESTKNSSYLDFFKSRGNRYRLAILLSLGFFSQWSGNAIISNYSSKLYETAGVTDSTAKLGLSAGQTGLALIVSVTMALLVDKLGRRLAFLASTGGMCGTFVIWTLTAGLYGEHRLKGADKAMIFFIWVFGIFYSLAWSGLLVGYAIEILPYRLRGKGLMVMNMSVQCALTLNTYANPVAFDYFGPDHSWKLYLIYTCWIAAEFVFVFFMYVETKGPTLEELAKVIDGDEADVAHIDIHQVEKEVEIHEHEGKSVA

CRT1-RUT-C30 [1] = target: T2, CRT1-RUT-C30 (Trichoderma reesei, UniProt G0RGH7); assay: radiolabelled sugar uptake in yeast; details: labelled compound; zero-trans uptake, 100 mM potassium phosphate pH 6.5, 28 °C
T2 construct: gene TRIREDRAFT_3405; full-length RUT-C30 version with longer N-terminus; codon-optimized synthetic gene, PGK1 promoter, centromeric plasmid in S. cerevisiae co-expressing N. crassa GH1-1
T2 sequence (G0RGH7 entry or part of it): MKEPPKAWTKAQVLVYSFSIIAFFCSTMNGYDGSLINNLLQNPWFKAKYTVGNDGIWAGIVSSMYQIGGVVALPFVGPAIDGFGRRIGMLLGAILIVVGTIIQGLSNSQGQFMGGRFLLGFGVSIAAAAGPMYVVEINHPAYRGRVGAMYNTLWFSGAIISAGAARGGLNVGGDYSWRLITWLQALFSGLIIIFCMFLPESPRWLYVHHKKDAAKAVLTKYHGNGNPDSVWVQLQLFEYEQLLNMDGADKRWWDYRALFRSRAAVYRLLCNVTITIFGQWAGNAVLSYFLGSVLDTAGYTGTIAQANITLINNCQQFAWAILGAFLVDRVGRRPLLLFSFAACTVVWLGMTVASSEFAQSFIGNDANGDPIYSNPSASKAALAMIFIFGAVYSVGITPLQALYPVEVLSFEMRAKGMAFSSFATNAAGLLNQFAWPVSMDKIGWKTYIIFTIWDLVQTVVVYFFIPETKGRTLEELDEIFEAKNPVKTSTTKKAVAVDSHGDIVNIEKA

CRT1-RUT-C30 [2] = target: T2, CRT1-RUT-C30; assay: inhibition of labelled cellobiose uptake in yeast; details: 5 mM labelled cellobiose, 25 mM inhibitor; pH 6.5, 28 °C
CDT-1 = target: T3, CDT-1 (Neurospora crassa, UniProt Q7SCU1); assay: inhibition of labelled cellobiose uptake in yeast; details: 5 mM labelled cellobiose, 25 mM inhibitor; pH 6.5, 28 °C
T3 construct: full-length; PGK1 promoter, centromeric plasmid in S. cerevisiae co-expressing N. crassa GH1-1
T3 sequence (Q7SCU1 1-579): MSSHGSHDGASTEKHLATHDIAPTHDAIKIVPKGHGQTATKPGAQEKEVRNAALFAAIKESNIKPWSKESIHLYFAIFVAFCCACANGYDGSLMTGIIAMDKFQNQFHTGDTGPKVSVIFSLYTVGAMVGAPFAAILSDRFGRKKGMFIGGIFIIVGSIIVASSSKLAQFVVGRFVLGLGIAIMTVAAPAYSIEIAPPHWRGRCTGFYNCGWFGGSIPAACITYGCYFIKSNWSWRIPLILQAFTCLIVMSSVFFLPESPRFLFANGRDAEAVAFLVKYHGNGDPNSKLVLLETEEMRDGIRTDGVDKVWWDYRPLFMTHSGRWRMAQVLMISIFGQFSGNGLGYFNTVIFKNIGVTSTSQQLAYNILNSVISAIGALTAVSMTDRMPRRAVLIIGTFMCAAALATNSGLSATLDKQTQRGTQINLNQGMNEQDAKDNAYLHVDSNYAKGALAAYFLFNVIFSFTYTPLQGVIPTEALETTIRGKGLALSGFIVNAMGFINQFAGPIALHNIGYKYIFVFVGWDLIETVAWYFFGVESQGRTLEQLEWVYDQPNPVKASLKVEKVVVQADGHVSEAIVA

| Structure (SMILES) | radiolabelled lactose uptake in yeast, 20 min (CDT-2) | Km (CRT1-RUT-C30 [1]) [µM] | % inhibition at 25 mM (CRT1-RUT-C30 [2]) | % inhibition at 25 mM (CDT-1) |
| --- | --- | --- | --- | --- |
| OC[C@H]1O[C@@H](O[C@H]2[C@H](O)[C@@H](O)C(O)O[C@@H]2CO)[C@H](O)[C@@H](O)[C@H]1O (some centres unmarked) [lactose] | higher lactose uptake was seen for the strains which expressed CDT-1, CDT-2 or CRT1-RUT-C30 | 62.9 ± 27.4 | – | – |
| OC[C@H]1O[C@@H](O[C@H]2[C@H](O)[C@@H](O)[C@H](O[C@H]3[C@H](O)[C@@H](O)C(O)O[C@@H]3CO)O[C@@H]2CO)[C@H](O)[C@@H](O)[C@@H]1O (some centres unmarked) [cellotriose] | – | – | it was inhibited by cellobiose and to some extent by lactose and cellotriose | it was inhibited by cellobiose and to some extent by lactose and cellotriose |
| OC[C@H]1O[C@@H](O[C@H]2[C@H](O)[C@@H](O)C(O)O[C@@H]2CO)[C@H](O)[C@@H](O)[C@@H]1O (some centres unmarked) [cellobiose] | – | 3.1 ± 0.7 | – | – |
